molecular target: T1, GRK2 (βARK-1) (Homo sapiens, UniProt P25098); assay: GRK2 (βARK-1) kinase assay: 33P phosphorylation of biotinylated bovine tubulin dimers, scintillation counting; assay type: biochemical; details: 100 nM GRK2 pre-incubated with inhibitor 30 min at room temperature; 250 nM tubulin, 3 μM ATP, [γ-33P]-ATP, 30 min reaction
T1 sequence (P25098 1-689): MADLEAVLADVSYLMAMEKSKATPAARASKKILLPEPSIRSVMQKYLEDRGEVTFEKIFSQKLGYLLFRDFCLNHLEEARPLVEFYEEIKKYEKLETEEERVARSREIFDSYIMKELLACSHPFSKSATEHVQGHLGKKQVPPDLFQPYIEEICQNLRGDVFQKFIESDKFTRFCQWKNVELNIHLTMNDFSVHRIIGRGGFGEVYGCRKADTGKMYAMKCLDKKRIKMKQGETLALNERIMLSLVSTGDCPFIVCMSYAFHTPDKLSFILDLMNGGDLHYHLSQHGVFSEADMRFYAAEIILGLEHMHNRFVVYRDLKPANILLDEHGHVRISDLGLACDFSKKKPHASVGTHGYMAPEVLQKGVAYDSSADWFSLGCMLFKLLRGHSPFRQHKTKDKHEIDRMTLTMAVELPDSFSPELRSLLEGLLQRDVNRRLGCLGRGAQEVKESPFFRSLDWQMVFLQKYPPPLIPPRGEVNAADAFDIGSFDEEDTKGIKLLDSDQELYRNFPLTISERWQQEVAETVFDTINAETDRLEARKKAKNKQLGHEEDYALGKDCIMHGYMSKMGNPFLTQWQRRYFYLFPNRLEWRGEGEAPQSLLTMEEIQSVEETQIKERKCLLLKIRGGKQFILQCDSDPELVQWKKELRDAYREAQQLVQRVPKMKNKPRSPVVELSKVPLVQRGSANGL
Protocol: The assay determines phosphorylation of biotinylated bovine tubulin dimers (250 nM; TEBU-BIO, # T333) coated to 384 well StreptaWell plates by 100 nM GRK2 which has been pre-incubated with inhibitor cpd. for 30 minutes at room temperature in assay buffer (20 mM Tris-HCl pH 7.4, 2 mM EDTA) containing 2.25% DMSO. The phosphorylation reaction was started by adding tubulin, MgCl2 (10 mM), ATP (3 μM), [γ-^33P]-ATP (0.4 μCi/40 μl) to the preincubated GRK2/compound complex. Then the assay mix was incubated for 30 min at room temperature before the kinase reaction was stopped adding 0.8% BSA, 0.8% Triton X 100, 80 mM EDTA and 400 μM ATP) followed by an 2-24 h incubation at +4° C. Due to the high energy of the […] free ^33P-ATP is removed by a washing step (3× with 100 μl 1×PBS pH 8.0) using a Tecan Power washer 384 to reduce background activity. Bound ^33P is determined by scintillation counting (60 μl scintillator, Ultimagold MV, 30 sec mix) using a Microbeta-counter (delay time 30 min).

Row | IC50 | SMILES
1 | 270 nM | Cn1cc(-c2cc(C(N)=O)nc3[nH]ncc23)c2ccccc21 [Example 4]
2 | 20 nM | Cn1cc(-c2cc(C(N)=O)nc3[nH]ncc23)c2cc(OCC(N)=O)ccc21 [Example 8, 4-(5-Carbamoylmethoxy-1-methyl-1H-indol-3-yl)-1H-pyrazolo[3,4-b]pyridine-6-carboxylic acid amide]
3 | 2100 nM | NC(=O)c1cc(-c2cccc(O)c2)c2cn[nH]c2n1 [Example 16]

Row | SMILES | IC50
4 | Cn1cc(-c2cc(C(N)=O)nc3[nH]ncc23)c2cc(OCC3CCCNC3)ccc21 (stereo not shown) [Example 3, 4-(1-methyl-5-(piperidin-3-ylmethoxy)-1H-indol-3-yl)-1H-pyrazolo(3,4-b)pyridine-6-carboxylic acid amide] | 700 nM
